Key:
[1] = test system: NCI-H292 lung cancer cells; assay: FDA drug screening, complete media vs cholesterol-free media with simvastatin (TABLE 2); format: cell-based, human; details: for Cholesterol-free media + simvastatin (0.04 μM) / Complete Media: NCI-H292 cells
[2] = test system: NCI-H292 lung cancer cells; assay: FDA drug screening, complete media vs cholesterol-free media without statin (TABLE 1); format: cell-based, human
[3] = drug in cholesterol-free media with simvastatin 0.04 μM
[4] = complete media vs cholesterol-free media + simvastatin (0.04 μM), >0 enhanced anti-cancer activity, about 0 neutral, <0 antagonist
[5] = Complete minus Cholesterol-free, >0 enhanced anti-cancer activity, about 0 neutral, <0 antagonist
[6] = NCI-H292 cells, cholesterol-free media without statin, FDA drug library screen
[7] = NCI-H292 cells, complete media, FDA drug library screen
[8] = FDA library drug in cholesterol-free media with simvastatin 0.04 μM
[9] = FDA library drug in complete media
[10] = Complete minus Cholesterol-free, greater than 0 enhanced anti-cancer activity, about 0 neutral, below 0 antagonists
[11] = NCI-H292 cells in cholesterol-free media without statin
[12] = NCI-H292 cells in complete media
[13] = cholesterol-free media with simvastatin 0.04 μM, FDA drug library screen (TABLE 2)
[14] = complete media, FDA drug library screen (TABLE 2)
[15] = complete media minus cholesterol-free media + simvastatin (0.04 μM), >0 enhanced anti-cancer activity, about 0 neutral, <0 antagonist
[16] = Complete minus Cholesterol-free, greater than 0 enhanced anti-cancer activity, about 0 neutral, below 0 antagonist
[17] = NCI-H292 cells, FDA drug library screen, cholesterol-free media without statin
[18] = NCI-H292 cells, FDA drug library screen, complete media
[19] = FDA drug library screen, cholesterol-free media with simvastatin 0.04 μM
[20] = FDA drug library screen, complete media
[21] = NCI-H292 cells, cholesterol-free media without statin
[22] = complete vs cholesterol-free media, greater than 0 enhanced anti-cancer activity, about 0 neutral, below 0 antagonists

COc1nccnc1NS(=O)(=O)c1ccc(N)cc1 [Sulfalene]
Cholesterol-free media + simvastatin (0.04 μM) [1, 3]: 1.16 | Complete Media ([1]; drug in complete media): 0.9534 | Difference [1, 4]: −0.21 | Difference [2, 5]: −0.03 | Cholesterol-free [2, 6]: 1.1 | Complete [2, 7]: 1.067

Cc1ccnc(NS(=O)(=O)c2ccc(N)cc2)n1 [Sulfamerazine]
Cholesterol-free media + simvastatin (0.04 μM) [1, 8]: 2.163 | Complete Media [1, 9]: 1.355 | Difference [1, 4]: −0.81 | Difference [2, 10]: −0.49 | Cholesterol-free [2, 11]: 1.498 | Complete [2, 12]: 1.009

COc1cnc(NS(=O)(=O)c2ccc(N)cc2)nc1 [Sulfameter]
Cholesterol-free media + simvastatin (0.04 μM) [1, 13]: 0.9816 | Complete Media [1, 14]: 0.9471 | Difference [1, 15]: −0.03 | Difference [2, 16]: −0.13 | Cholesterol-free [2, 17]: 0.9159 | Complete [2, 18]: 0.7824

Cc1cc(C)nc(NS(=O)(=O)c2ccc(N)cc2)n1 [Sulfamethazine]
Cholesterol-free media + simvastatin (0.04 μM) [1, 19]: 1.21 | Complete Media [1, 20]: 1.052 | Difference [1, 4]: −0.16 | Difference [2, 10]: −0.77 | Cholesterol-free [2, 11]: 1.661 | Complete [2, 12]: 0.8945

Cc1nnc(NS(=O)(=O)c2ccc(N)cc2)s1 [Sulfamethizole]
Cholesterol-free media + simvastatin (0.04 μM) [1, 13]: 1.154 | Complete Media [1, 14]: 1.13 | Difference [1, 15]: −0.02 | Cholesterol-free [2, 6]: 0.6059 | Complete [2, 7]: 1.186 | Difference ([2]; complete vs cholesterol-free media, >0 enhanced anti-cancer activity, about 0 neutral, <0 antagonist): 0.58

Cc1cc(NS(=O)(=O)c2ccc(N)cc2)no1 [Sulfamethoxazole]
Cholesterol-free media + simvastatin (0.04 μM) [1, 3]: 1.223 | Complete Media ([1]; drug in complete media): 1.051 | Difference [1, 4]: −0.17 | Cholesterol-free [2, 21]: 1.301 | Complete ([2]; NCI-H292 cells, complete media): 0.8647 | Difference [2, 22]: −0.44

COc1cc(NS(=O)(=O)c2ccc(N)cc2)ncn1 [Sulfamonomethoxine]
Cholesterol-free media + simvastatin (0.04 μM) [1, 8]: 1.013 | Complete Media [1, 9]: 0.7465 | Difference [1, 4]: −0.27 | Difference [2, 10]: −0.48 | Cholesterol-free [2, 11]: 1.378 | Complete [2, 12]: 0.8971

Nc1ccc(S(N)(=O)=O)cc1 [Sulfanilamide]
Cholesterol-free media + simvastatin (0.04 μM) [1, 8]: 1.221 | Complete Media [1, 9]: 0.9133 | Difference [1, 4]: −0.31 | Cholesterol-free [2, 21]: 1.317 | Complete ([2]; NCI-H292 cells, complete media): 1.005 | Difference [2, 22]: −0.31

Nc1ccc(S(=O)(=O)Nc2ccnn2-c2ccccc2)cc1 [Sulfaphenazole]
Cholesterol-free media + simvastatin (0.04 μM) [1, 19]: 1.123 | Complete Media [1, 20]: 1.024 | Difference [1, 4]: −0.10 | Difference [2, 16]: −0.18 | Cholesterol-free [2, 17]: 1.174 | Complete [2, 18]: 0.9989

Nc1ccc(S(=O)(=O)Nc2ccccn2)cc1 [Sulfapyridine]
Cholesterol-free media + simvastatin (0.04 μM) [1, 19]: 1.045 | Complete Media [1, 20]: 1.844 | Difference ([1]; complete media minus cholesterol-free media + simvastatin, >0 enhanced anti-cancer activity, about 0 neutral, <0 antagonist): 0.80 | Difference [2, 5]: −0.02 | Cholesterol-free [2, 6]: 0.8112 | Complete [2, 7]: 0.7909

O=C(O)c1cc(/N=N/c2ccc(S(=O)(=O)Nc3ccccn3)cc2)ccc1O [Sulfasalazine]
Cholesterol-free media + simvastatin (0.04 μM) [1, 13]: 1.17 | Complete Media [1, 14]: 1.155 | Difference [1, 15]: −0.01 | Difference [2, 5]: −0.20 | Cholesterol-free [2, 21]: 1.104 | Complete ([2]; NCI-H292 cells, complete media): 0.9081

Nc1ccc(S(=O)(=O)Nc2nccs2)cc1 [Sulfathiazole (sodium)]
Cholesterol-free media + simvastatin (0.04 μM) [1, 8]: 1.852 | Complete Media [1, 9]: 1.04 | Difference [1, 4]: −0.81 | Difference [2, 5]: −0.22 | Cholesterol-free [2, 21]: 1.264 | Complete ([2]; NCI-H292 cells, complete media): 1.047

O=C1C(CC[S+]([O-])c2ccccc2)C(=O)N(c2ccccc2)N1c1ccccc1 (stereo not drawn) [Sulfinpyrazone]
Cholesterol-free media + simvastatin (0.04 μM) [1, 3]: 1.076 | Complete Media ([1]; drug in complete media): 0.9093 | Difference [1, 4]: −0.17 | Cholesterol-free [2, 21]: 1.3 | Complete ([2]; NCI-H292 cells, complete media): 0.9417 | Difference [2, 22]: −0.36

Cc1cc(NS(=O)(=O)c2ccc(N)cc2)nc(C)n1 [Sulfisomidin]
Cholesterol-free media + simvastatin (0.04 μM) [1, 8]: 1.147 | Complete Media [1, 9]: 0.7862 | Difference ([1]; complete media vs cholesterol-free media + simvastatin (0.04 μM), […]): −0.36 | Difference ([2]; Complete minus Cholesterol-free, […]): −0.21 | Cholesterol-free [2, 21]: 1.055 | Complete ([2]; NCI-H292 cells, complete media): 0.8471

Reference: patent US20250144067A1, “PERSONALIZED STARVATION THERAPY FOR CANCER” (Faeth Therapeutics, Inc., priority 2021, published 2025)
